Measurements reported in the supplement of paper PMC10307832.

Experiments:
Assay in all cases: relative viability (nuclei count vs DMSO), 5 days (fraction); higher = more cells survive
[1] = system: CAL-12T
Summary of the method: (§1)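 Lung cancer cell lines in 1536-well plates got either a single drug or a fixed anchor-drug dose together with five library-drug doses (not always all listed) in √10 steps, by pin tool, on the day after seeding. Nuclei were counted after 5 days, and relative viability is the treated-to-vehicle ratio of nuclei counts. Values are medians of duplicate plates.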

[2] = system: NCI-H1975
Summary of the method: as §1

[3] = system: NCI-H2085
Summary of the method: as §1

[4] = system: NCI-H1993
Summary of the method: as §1

[5] = system: ABC-1
Summary of the method: as §1

[6] = system: EKVX
Summary of the method: as §1

[7] = system: HCC-366
Summary of the method: as §1

[8] = system: COR-L 105
Summary of the method: as §1

[9] = system: NCI-H322M
Summary of the method: as §1

[10] = system: NCI-H460
Summary of the method: as §1

[11] = system: SK-MES-1
Summary of the method: as §1

[12] = system: HCC-827
Summary of the method: as §1

[13] = system: NCI-H2087
Summary of the method: as §1

[14] = system: H3255
Summary of the method: as §1

[15] = system: NCI-H1355
Summary of the method: as §1

[16] = system: NCI-H1792
Summary of the method: as §1

[17] = system: NCI-H2009
Summary of the method: as §1

[18] = system: EPLC-272H
Summary of the method: as §1

[19] = system: NCI-H2228
Summary of the method: as §1

## Nc1cccc2c1CN(C1CCC(=O)NC1=O)C2=O (configuration not stated) [Lenalidomide] + CS(=O)(=O)CCNCc1ccc(-c2ccc3ncnc(Nc4ccc(OCc5cccc(F)c5)c(Cl)c4)c3c2)o1 [Lapatinib] (partner 2 µM)
[1]; first compound 0.253 µM
  relative viability: 0.602
[1]; first compound 2.53 µM
  relative viability: 0.801
[1]; first compound 8 µM
  relative viability: 0.403
[2]; first compound 0.253 µM
  relative viability: 0.897
[2]; first compound 0.8 µM
  relative viability: 0.799
[2]; first compound 2.53 µM
  relative viability: 1.07
[2]; first compound 8 µM
  relative viability: 0.909
[3]; first compound 0.253 µM
  relative viability: 0.731
[3]; first compound 0.8 µM
  relative viability: 0.538
[3]; first compound 2.53 µM
  relative viability: 0.912
[3]; first compound 8 µM
  relative viability: 0.477
[4]; first compound 0.253 µM
  relative viability: 0.894
[4]; first compound 0.8 µM
  relative viability: 0.831
[4]; first compound 2.53 µM
  relative viability: 0.821
[4]; first compound 8 µM
  relative viability: 0.722
[5]; first compound 0.253 µM
  relative viability: 1.13
[5]; first compound 2.53 µM
  relative viability: 1.11
[5]; first compound 8 µM
  relative viability: 1.34
[6]; first compound 0.253 µM
  relative viability: 0.208
[6]; first compound 0.8 µM
  relative viability: 0.173
[6]; first compound 2.53 µM
  relative viability: 0.189
[6]; first compound 8 µM
  relative viability: 0.157
[7]; first compound 0.253 µM
  relative viability: 1.03
[7]; first compound 0.8 µM
  relative viability: 1.1
[7]; first compound 2.53 µM
  relative viability: 1.03
[7]; first compound 8 µM
  relative viability: 1.07
[8]; first compound 0.253 µM
  relative viability: 0.386
[8]; first compound 0.8 µM
  relative viability: 0.364
[8]; first compound 2.53 µM
  relative viability: 0.343
[8]; first compound 8 µM
  relative viability: 0.33
[9]; first compound 0.253 µM
  relative viability: 0.648
[9]; first compound 0.8 µM
  relative viability: 0.629
[9]; first compound 2.53 µM
  relative viability: 0.592
[9]; first compound 8 µM
  relative viability: 0.635
[10]; first compound 0.253 µM
  relative viability: 0.981
[10]; first compound 0.8 µM
  relative viability: 1.14
[10]; first compound 2.53 µM
  relative viability: 1.66
[10]; first compound 8 µM
  relative viability: 1.01
[11]; first compound 0.253 µM
  relative viability: 0.416
[11]; first compound 0.8 µM
  relative viability: 0.397
[11]; first compound 2.53 µM
  relative viability: 0.536
[11]; first compound 8 µM
  relative viability: 0.391
[12]; first compound 0.253 µM
  relative viability: 0.189
[12]; first compound 0.8 µM
  relative viability: 0.202
[12]; first compound 2.53 µM
  relative viability: 0.151
[12]; first compound 8 µM
  relative viability: 0.185
[13]; first compound 0.253 µM
  relative viability: 1.01
[13]; first compound 0.8 µM
  relative viability: 0.78
[13]; first compound 2.53 µM
  relative viability: 1.07
[13]; first compound 8 µM
  relative viability: 1.09
[14]; first compound 0.253 µM
  relative viability: 0.237
[14]; first compound 0.8 µM
  relative viability: 0.191
[14]; first compound 2.53 µM
  relative viability: 0.317
[14]; first compound 8 µM
  relative viability: 0.227
[15]; first compound 0.253 µM
  relative viability: 1
[15]; first compound 0.8 µM
  relative viability: 0.623
[15]; first compound 2.53 µM
  relative viability: 0.963
[15]; first compound 8 µM
  relative viability: 0.606
[16]; first compound 0.253 µM
  relative viability: 0.946
[16]; first compound 0.8 µM
  relative viability: 0.729
[16]; first compound 2.53 µM
  relative viability: 1.03
[16]; first compound 8 µM
  relative viability: 0.666
[17]; first compound 0.253 µM
  relative viability: 0.919
[17]; first compound 0.8 µM
  relative viability: 0.947
[17]; first compound 2.53 µM
  relative viability: 1.25
[17]; first compound 8 µM
  relative viability: 1.25
[18]; first compound 0.253 µM
  relative viability: 0.97
[18]; first compound 2.53 µM
  relative viability: 0.976
[18]; first compound 8 µM
  relative viability: 0.648
[19]; first compound 0.253 µM
  relative viability: 0.997
[19]; first compound 0.8 µM
  relative viability: 0.864
[19]; first compound 2.53 µM
  relative viability: 1.59
[19]; first compound 8 µM
  relative viability: 0.958

## CCNC(=O)c1noc(-c2cc(C(C)C)c(O)cc2O)c1-c1ccc(CN2CCOCC2)cc1 [Luminespib] + CS(=O)(=O)CCNCc1ccc(-c2ccc3ncnc(Nc4ccc(OCc5cccc(F)c5)c(Cl)c4)c3c2)o1 [Lapatinib] (partner 2 µM)
[1]; first compound 0.002 µM
  relative viability: 0.596
[1]; first compound 0.006325 µM
  relative viability: 0.644
[1]; first compound 0.02 µM
  relative viability: 0.309
[1]; first compound 0.06325 µM
  relative viability: 0.183
[1]; first compound 0.2 µM
  relative viability: 0.158
[2]; first compound 0.002 µM
  relative viability: 0.951
[2]; first compound 0.006325 µM
  relative viability: 0.739
[2]; first compound 0.02 µM
  relative viability: 0.291
[2]; first compound 0.06325 µM
  relative viability: 0.126
[2]; first compound 0.2 µM
  relative viability: 0.113
[3]; first compound 0.002 µM
  relative viability: 0.854
[3]; first compound 0.006325 µM
  relative viability: 0.793
[3]; first compound 0.02 µM
  relative viability: 0.482
[3]; first compound 0.06325 µM
  relative viability: 0.373
[3]; first compound 0.2 µM
  relative viability: 0.284
[4]; first compound 0.002 µM
  relative viability: 0.874
[4]; first compound 0.006325 µM
  relative viability: 0.864
[4]; first compound 0.02 µM
  relative viability: 0.654
[4]; first compound 0.06325 µM
  relative viability: 0.491
[4]; first compound 0.2 µM
  relative viability: 0.418
[5]; first compound 0.002 µM
  relative viability: 1.33
[5]; first compound 0.006325 µM
  relative viability: 0.964
[5]; first compound 0.02 µM
  relative viability: 0.945
[5]; first compound 0.06325 µM
  relative viability: 1.14
[5]; first compound 0.2 µM
  relative viability: 0.517
[6]; first compound 0.002 µM
  relative viability: 0.183
[6]; first compound 0.006325 µM
  relative viability: 0.228
[6]; first compound 0.02 µM
  relative viability: 0.175
[6]; first compound 0.06325 µM
  relative viability: 0.158
[6]; first compound 0.2 µM
  relative viability: 0.0973
[7]; first compound 0.002 µM
  relative viability: 1.07
[7]; first compound 0.006325 µM
  relative viability: 1.05
[7]; first compound 0.02 µM
  relative viability: 0.13
[7]; first compound 0.06325 µM
  relative viability: 0.0159
[7]; first compound 0.2 µM
  relative viability: 0.0157
[8]; first compound 0.002 µM
  relative viability: 0.363
[8]; first compound 0.006325 µM
  relative viability: 0.354
[8]; first compound 0.02 µM
  relative viability: 0.283
[8]; first compound 0.06325 µM
  relative viability: 0.266
[8]; first compound 0.2 µM
  relative viability: 0.302
[9]; first compound 0.002 µM
  relative viability: 0.556
[9]; first compound 0.006325 µM
  relative viability: 0.573
[9]; first compound 0.02 µM
  relative viability: 0.503
[9]; first compound 0.06325 µM
  relative viability: 0.708
[9]; first compound 0.2 µM
  relative viability: 0.373
[10]; first compound 0.002 µM
  relative viability: 1.11
[10]; first compound 0.006325 µM
  relative viability: 0.871
[10]; first compound 0.02 µM
  relative viability: 0.0465
[10]; first compound 0.06325 µM
  relative viability: 0.0095
[10]; first compound 0.2 µM
  relative viability: 0.0127
[11]; first compound 0.002 µM
  relative viability: 0.461
[11]; first compound 0.006325 µM
  relative viability: 0.459
[11]; first compound 0.02 µM
  relative viability: 0.407
[11]; first compound 0.06325 µM
  relative viability: 0.265
[11]; first compound 0.2 µM
  relative viability: 0.159
[12]; first compound 0.002 µM
  relative viability: 0.184
[12]; first compound 0.006325 µM
  relative viability: 0.184
[12]; first compound 0.02 µM
  relative viability: 0.172
[12]; first compound 0.06325 µM
  relative viability: 0.235
[12]; first compound 0.2 µM
  relative viability: 0.185
[13]; first compound 0.002 µM
  relative viability: 1.11
[13]; first compound 0.006325 µM
  relative viability: 0.954
[13]; first compound 0.02 µM
  relative viability: 0.726
[13]; first compound 0.06325 µM
  relative viability: 0.202
[13]; first compound 0.2 µM
  relative viability: 0.174
[14]; first compound 0.002 µM
  relative viability: 0.245
[14]; first compound 0.006325 µM
  relative viability: 0.305
[14]; first compound 0.02 µM
  relative viability: 0.234
[14]; first compound 0.06325 µM
  relative viability: 0.233
[14]; first compound 0.2 µM
  relative viability: 0.25
[15]; first compound 0.002 µM
  relative viability: 0.891
[15]; first compound 0.006325 µM
  relative viability: 1.02
[15]; first compound 0.02 µM
  relative viability: 0.461
[15]; first compound 0.06325 µM
  relative viability: 0.664
[15]; first compound 0.2 µM
  relative viability: 0.153
[16]; first compound 0.002 µM
  relative viability: 0.855
[16]; first compound 0.006325 µM
  relative viability: 0.778
[16]; first compound 0.02 µM
  relative viability: 0.717
[16]; first compound 0.06325 µM
  relative viability: 0.474
[16]; first compound 0.2 µM
  relative viability: 0.587
[17]; first compound 0.002 µM
  relative viability: 1.22
[17]; first compound 0.006325 µM
  relative viability: 0.814
[17]; first compound 0.02 µM
  relative viability: 0.63
[17]; first compound 0.06325 µM
  relative viability: 0.0682
[17]; first compound 0.2 µM
  relative viability: 0.0655
[18]; first compound 0.006325 µM
  relative viability: 0.861
[18]; first compound 0.02 µM
  relative viability: 0.563
[18]; first compound 0.06325 µM
  relative viability: 0.725
[18]; first compound 0.2 µM
  relative viability: 0.153
[19]; first compound 0.002 µM
  relative viability: 1.2
[19]; first compound 0.006325 µM
  relative viability: 0.808
[19]; first compound 0.02 µM
  relative viability: 0.191
[19]; first compound 0.06325 µM
  relative viability: 0.126
[19]; first compound 0.2 µM
  relative viability: 0.117
